PubChem BioAssay AID330 (DTP/NCI, 2004)
Where “and” joins values, the source holds several entries; their conditions need not be identical. Identical values can stand only once. Toxic doses and inconclusive results are not listed. How the source made its calls: active means survival T/C of 150% or more; inactive means T/C below 125% in these data.

System: P388 leukemia ip, CD2F1 mice, survival T/C
Assay: NCI In Vivo Anticancer Drug Screen. Data for tumor model P388 Leukemia (intraperitoneal) in CD2F1 (CDF1) mice
Settings: endpoint: median survival time, higher = longer survival
How it was run: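 Mice carrying the transplanted tumor received test compound or vehicle. Survival was recorded in each group, and the value is the treated-group measurement divided by that of the vehicle-treated control group.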

[1] = dose: 100.0 mg/kg/injection, schedule: Q01DX001 (ip), vehicle: saline with Tween-80
[2] = dose: 200.0 mg/kg/injection, schedule: Q01DX001 (ip), vehicle: saline with Tween-80
[3] = dose: 400.0 mg/kg/injection, schedule: Q01DX001 (ip), vehicle: saline with Tween-80
[4] = dose: 50.0 mg/kg/injection, schedule: Q01DX009 (ip), vehicle: saline with Tween-80
[5] = dose: 60.0 mg/kg/injection, schedule: Q01DX005 (ip), vehicle: Klucel (hydroxypropylcellulose) (HPC)
[6] = dose: 120.0 mg/kg/injection, schedule: Q01DX005 (ip), vehicle: Klucel (hydroxypropylcellulose) (HPC)
[7] = dose: 240.0 mg/kg/injection, schedule: Q01DX005 (ip), vehicle: Klucel (hydroxypropylcellulose) (HPC)
[8] = dose: 12.5 mg/kg/injection, schedule: Q01DX009 (ip), vehicle: saline
[9] = dose: 25.0 mg/kg/injection, schedule: Q01DX009 (ip), vehicle: saline
[10] = dose: 50.0 mg/kg/injection, schedule: Q01DX009 (ip), vehicle: saline
[11] = dose: 25.0 mg/kg/injection, schedule: Q01DX009 (ip), vehicle: saline with Tween-80
[12] = dose: 50.0 mg/kg/injection, schedule: Q04DX003 (ip), vehicle: saline with Tween-80
[13] = dose: 100.0 mg/kg/injection, schedule: Q04DX003 (ip), vehicle: saline with Tween-80
[14] = dose: 50.0 mg/kg/injection, schedule: Q01DX005 (ip), vehicle: saline with Tween-80
[15] = dose: 100.0 mg/kg/injection, schedule: Q01DX005 (ip), vehicle: saline with Tween-80
[16] = dose: 200.0 mg/kg/injection, schedule: Q01DX005 (ip), vehicle: saline with Tween-80
[17] = dose: 100.0 mg/kg/injection, schedule: Q01DX009 (ip), vehicle: saline with Tween-80
[18] = dose: 200.0 mg/kg/injection, schedule: Q01DX009 (ip), vehicle: saline with Tween-80
[19] = dose: 100.0 mg/kg/injection, schedule: Q01DX009 (ip), vehicle: saline

Measured: T/C

CN1CCCC(Cc2ccccc2)S1(=O)=O (centres undefined)
inactive: [1] 98 % of control | [2] 99 % of control | [3] 98 % of control

COc1ccc2sc3c(C)ccc(NCCN(C)C)c3c(=O)c2c1
inactive: [4] 115 % of control

OCC1OC(ONc2ccccc2)C(O)C(O)C1O (centres undefined)
inactive: [5] 94 % of control | [6] 99 % of control | [7] 100 % of control

CN(C)CC(CN(C)C)C(=O)c1ccccc1
inactive: dose: 3.12 mg/kg/injection, schedule: Q01DX009 (ip), vehicle: saline 103 % of control and 105 % of control | dose: 6.25 mg/kg/injection, schedule: Q01DX009 (ip), vehicle: saline 105 % of control (2×) and 122 % of control | [8] 107 % of control and 117 % of control and 112 % of control | [9] 117 % of control [middle of 5 runs] | [10] 124 % of control

COC(=O)C1CCC2C(C1)OC1(CC(OC(=O)/C=C/c3ccccc3)C(C)CO1)C21CO1 (centres undefined)
inactive: dose: 3.0 mg/kg/injection, schedule: Q01DX005 (ip), vehicle: saline + alcohol 100 % of control | dose: 5.0 mg/kg/injection, schedule: Q01DX009 (ip), vehicle: saline + alcohol 95 % of control | dose: 6.0 mg/kg/injection, schedule: Q01DX005 (ip), vehicle: saline + alcohol 97 % of control | dose: 10.0 mg/kg/injection, schedule: Q01DX009 (ip), vehicle: saline + alcohol 106 % of control | dose: 12.0 mg/kg/injection, schedule: Q01DX005 (ip), vehicle: saline + alcohol 97 % of control | dose: 20.0 mg/kg/injection, schedule: Q01DX009 (ip), vehicle: saline + alcohol 103 % of control | dose: 24.0 mg/kg/injection, schedule: Q01DX005 (ip), vehicle: saline + alcohol 99 % of control | dose: 40.0 mg/kg/injection, schedule: Q01DX009 (ip), vehicle: saline + alcohol 103 % of control

C/C(=N\O)c1ccccn1
inactive: dose: 25.0 mg/kg/injection, schedule: Q01DX009 (ip), vehicle: water 100 % of control | dose: 50.0 mg/kg/injection, schedule: Q01DX009 (ip), vehicle: water 98 % of control | dose: 100.0 mg/kg/injection, schedule: Q01DX009 (ip), vehicle: water 98 % of control | dose: 200.0 mg/kg/injection, schedule: Q01DX009 (ip), vehicle: water 100 % of control | dose: 400.0 mg/kg/injection, schedule: Q01DX009 (ip), vehicle: water 106 % of control

CN(C)c1nc(N)c(N=O)c(=O)[nH]1
inactive: dose: 12.5 mg/kg/injection, schedule: Q01DX009 (ip), vehicle: saline with Tween-80 104 % of control | [11] 94 % of control | [4] 94 % of control | [10] 87 % of control | [12] 94 % of control | [13] 93 % of control

C=C1C(=O)O[C@H]2CC(C)C3C[C@@H](O)OC(O)[C@]3(C)C[C@@H]12 (some centres undefined)
inactive: dose: 2.38 mg/kg/injection, schedule: Q01DX005 (ip), vehicle: Klucel (hydroxypropylcellulose) (HPC) 101 % of control | dose: 4.75 mg/kg/injection, schedule: Q01DX005 (ip), vehicle: Klucel (hydroxypropylcellulose) (HPC) 111 % of control | dose: 9.5 mg/kg/injection, schedule: Q01DX005 (ip), vehicle: Klucel (hydroxypropylcellulose) (HPC) 102 % of control

O=P(O)(O)c1ccccc1P(=O)(O)O
inactive: dose: 60.0 mg/kg/injection, schedule: Q01DX005 (ip), vehicle: saline 105 % of control | dose: 120.0 mg/kg/injection, schedule: Q01DX005 (ip), vehicle: saline 93 % of control

Oc1c(N=Nc2nn[nH]n2)ccc2ccccc12
inactive: [14] 105 % of control | [15] 97 % of control | [16] 99 % of control

Cc1[nH]c(=O)[nH]c(=O)c1CCSSCCc1c(C)[nH]c(=O)[nH]c1=O
inactive: [14] 102 % of control | [15] 100 % of control | [16] 98 % of control

CC(=O)NC(CC(C)C(C)=O)C(=O)O (centres undefined)
inactive: dose: 50.0 mg/kg/injection, schedule: Q01DX005 (ip), vehicle: saline 92 % of control | dose: 100.0 mg/kg/injection, schedule: Q01DX005 (ip), vehicle: saline 95 % of control | dose: 200.0 mg/kg/injection, schedule: Q01DX005 (ip), vehicle: saline 92 % of control

Nc1nc2c(ncn2C2OC(CO)C(O)C2N)c(=O)[nH]1 (centres undefined)
inactive: [11] 106 % of control and 97 % of control | dose: 25.0 mg/kg/injection, schedule: Q04DX003 (ip), vehicle: saline with Tween-80 103 % of control | dose: 25.0 mg/kg/injection, schedule: Q04DX003 (ip), vehicle: saline 101 % of control | [4] 100 % of control and 107 % of control | [12] 96 % of control | dose: 50.0 mg/kg/injection, schedule: Q04DX003 (ip), vehicle: saline 104 % of control | [17] 106 % of control | [13] 101 % of control | dose: 100.0 mg/kg/injection, schedule: Q04DX003 (ip), vehicle: saline 100 % of control and 105 % of control | [18] 100 % of control | dose: 200.0 mg/kg/injection, schedule: Q04DX003 (ip), vehicle: saline with Tween-80 104 % of control | dose: 200.0 mg/kg/injection, schedule: Q04DX003 (ip), vehicle: saline 98 % of control and 108 % of control | dose: 400.0 mg/kg/injection, schedule: Q04DX003 (ip), vehicle: saline with Tween-80 101 % of control | dose: 400.0 mg/kg/injection, schedule: Q04DX003 (ip), vehicle: saline 105 % of control and 107 % of control

Clc1ccc(/C=N\N=C\c2ccc(Cl)c(Cl)c2)cc1Cl
inactive: [11] 95 % of control | [4] 100 % of control | [17] 110 % of control | [18] 90 % of control | dose: 400.0 mg/kg/injection, schedule: Q01DX009 (ip), vehicle: saline with Tween-80 90 % of control

COc1ccccc1C1OC2=Nc3cc(C)c(C)cc3NC2C1=O (centres undefined)
inactive: dose: 30.0 mg/kg/injection, schedule: Q01DX005 (ip), vehicle: Klucel (hydroxypropylcellulose) (HPC) 96 % of control | [5] 93 % of control | [6] 90 % of control | [7] 95 % of control

CCOC(=O)C[n+]1ccc2cc(OC)c(OC)cc2c1Cc1ccc(OC)c(OC)c1
inactive: [4] 102 % of control | [17] 90 % of control | [18] 90 % of control

CC1C=CC(C)N(C(N)=O)N1C(N)=O (centres undefined)
inactive: [1] 98 % of control | [2] 100 % of control | [3] 91 % of control

Cn1cnc([N+](=O)[O-])c1Sc1ncccc1C(=O)O
inactive: dose: 50.0 mg/kg/injection, schedule: Q01DX005 (ip), vehicle: Klucel (hydroxypropylcellulose) (HPC) 112 % of control | dose: 100.0 mg/kg/injection, schedule: Q01DX005 (ip), vehicle: Klucel (hydroxypropylcellulose) (HPC) 114 % of control | dose: 200.0 mg/kg/injection, schedule: Q01DX005 (ip), vehicle: Klucel (hydroxypropylcellulose) (HPC) 105 % of control

N#C/C(=C1/OC(=N)C(c2c(Cl)cccc2Cl)C1=O)c1c(Cl)cccc1Cl (centres undefined)
inactive: [14] 100 % of control | [15] 101 % of control

CCCCCCCCCCCCCCCC[N+]1(CC)CCOCC1 (tested in a mixture with another compound)
inactive: dose: 3.13 mg/kg/injection, schedule: Q01DX009 (ip), vehicle: Klucel (hydroxypropylcellulose) (HPC) 96 % of control | dose: 6.25 mg/kg/injection, schedule: Q01DX009 (ip), vehicle: Klucel (hydroxypropylcellulose) (HPC) 113 % of control | dose: 12.5 mg/kg/injection, schedule: Q01DX009 (ip), vehicle: Klucel (hydroxypropylcellulose) (HPC) 115 % of control

O=NN(CCCCl)C(=O)NC1CCCCC1
inactive: [8] 86 % of control | [9] 98 % of control | [10] 104 % of control | [19] 107 % of control

COc1cc(CCC(=O)O)on1
inactive: [10] 101 % of control | [19] 109 % of control | dose: 200.0 mg/kg/injection, schedule: Q01DX009 (ip), vehicle: saline 108 % of control

CCOC(=O)C(C)ONC(=O)Nc1ccc(Cl)cc1 (centres undefined)
inactive: [4] 105 % of control | [17] 103 % of control | [18] 95 % of control

CCSc1ccc2c(cc1=O)C(N)CCc1cc(OC)c(OC)c(OC)c1-2 (centres undefined)
inactive: dose: 50.0 mg/kg/injection, schedule: Q01DX009 (ip), vehicle: Klucel (hydroxypropylcellulose) (HPC) 96 % of control | dose: 100.0 mg/kg/injection, schedule: Q01DX009 (ip), vehicle: Klucel (hydroxypropylcellulose) (HPC) 121 % of control
